Experimental data as given in patent US20100113544A1, “Suppressant for cerebral infarction attributed to long-time ischemia” (Ehime University, priority 2004, published 2010).
Marks after values point to notes of the source that are not given here.

Key:
[1] = test system: pyramidal neurons in the hippocampal CA-1 region; details: administration prior to transient ischemia (5 or 10 minutes forebrain ischemia), rat; cited from earlier work
[2] = test system: neurons in the rat striatum; details: administered 4 times: immediately, 6, 24 and 48 hours after 15 minutes of transient ischemia, rats; cited from earlier work
[3] = test system: cerebral infarction after 2 hours middle cerebral artery occlusion in male Wistar rats; assay: Size of cerebral infarction (triphenyltetrazolium chloride staining, planimetry) 24 h after reperfusion following 2 h middle cerebral artery occlusion; format: in vivo, rat; details: for size of cerebral infarction, Cerebral cortex / size of cerebral infarction, Striatum / size of cerebral infarction, Total: mean ± SD
Description: These rats were anesthetized with a gas mixture of 2% halothane, 49% oxygen and 49% laughing gas, i.e. N2O, and kept under spontaneous breathing. Subsequently, a median incision was made in the neck of the rat placed on its back, and the right common carotid artery was exposed. After an intraperitoneal injection of 100 units of heparin, the root of the right middle cerebral artery was occluded by inserting 4·0 nylon thread coated with silicone into the right internal carotid artery from the bifurcation of the internal and external carotid arteries. The tip of the nylon thread was placed 18 mm from the bifurcation. After suture of the incision of the skin, the rats were allowed to recover from anesthesia. During surgery, an electronic thermometer was inserted into the rectum, and the temperature of the rectum was maintained at 37.0±0.1° C. with a lamp.
Five minutes before reperfusion of blood flow, the rats were anesthetized again. After opening the skin suture, the cerebral blood flow was resumed by removing the nylon thread by 5 mm 2 hours after middle cerebral artery occlusion. […] After recovery from anesthesia, the rats were allowed to access food and water freely.
Twenty-four hours after recovery of blood flow, sodium pentobarbital was intraperitoneally administered to the rats for anesthesia. Subsequently, the brain was perfused with heparinized-physiological saline, and the rat was decapitated. The brain was quickly taken out, and rinsed in physiological saline. The brain was sliced coronally between the optic chiasm and the caucal edge of the mammillary body at a thickness of 2 mm. These brain slices were subjected to incubation with 2% triphenyltetrazolium chloride in phosphate buffer (0.1 mol/L, pH 7.4) at 37° C. As a result, due to the action of dehydrogenase present in viable cells, triphenyltetrazolium chloride was reduced, and the tissue was stained in dark red. On the other hand, the dead tissue in the infarcted area was not stained. These brain slices were preserved in phosphate-buffered formalin overnight. […] The obtained size of cerebral infarction was subjected to analysis of variance and the Scheffe test.
The values in the table (unit: mm^3) indicate the size of cerebral infarction as the “mean ±standard deviation”, while “*” denotes a case in which it was significant versus the control group by p<0.05, and “**” denotes a case in which it was significant versus the control group by p<0.01.

neutrophils = assay: Number of neutrophils in brain sections (myeloperoxidase immunohistochemistry) after 2 h middle cerebral artery occlusion and reperfusion; format: in vivo, rat; details: for number of neutrophils, +0.7 mm to the bregma / number of neutrophils, +1.7 mm to the bregma / number of neutrophils, −0.3 mm to the bregma: 1000 mg/kg i.p. twice
Experimental: (§1) One of the causes for organ dysfunction resulting from ischemia is reperfusion injury after recovery of blood flow, and the inflammatory response is an important factor which induces reperfusion injury. Therefore, as an index of inflammation subsequent to reperfusion of blood flow, the numbers of neutrophils and macrophages were determined.
(§2) Thirty-two male Wistar rats weighting about 300 g were divided into 4 groups with 8 rats in each. The middle cerebral artery of all rats was occluded for two hours, as shown in Example 1. […] Subsequently, 12 or 24 hours after recovery of blood flow, the brain was taken out after perfusion with physiological saline. Frozen sections having 6 μm thick was prepared at a distance of about 1.7 mm rostral to the bregma, i.e. anterior fontanel, 0.7 mm rostral to the bregma toward the rostral side, and 0.3 mm caudal to the bregma.
After observing these frozen sections by light microscopy, the total numbers of neutrophils on the ischemic and non-ischemic sides were obtained rseparately. Also, frozen sections obtained from identical rats were subjected to immunochemistry with an antibody for ED1 which is a cell surface marker of macrophages. […] Therefore, with regard to ED1-positive cells, the difference in the number of cells between the ischemic and non-ischemic sides was calculated. The difference was determined as the number of macrophages and compared between each corresponding group.

[4] = test system: ED1-positive cells (macrophages); assay: Number of ED1-positive cells / macrophages in brain sections (ED1 immunohistochemistry) after 2 h middle cerebral artery occlusion and reperfusion; format: in vivo, rat; details: for number of ED1-positive cells: versus control; for number of ED1-positive cells, Differences (number of macrophages), +0.7 mm to the bregma / number of ED1-positive cells, Differences (number of macrophages), +1.7 mm to the bregma / number of ED1-positive cells, Differences (number of macrophages), −0.3 mm to the bregma: difference between ischemic and non-ischemic sides; for number of ED1-positive cells, Differences (number of macrophages), +0.7 mm to the bregma / number of ED1-positive cells, Differences (number of macrophages), +1.7 mm to the bregma / number of ED1-positive cells, Differences (number of macrophages), −0.3 mm to the bregma / number of ED1-positive cells, +0.7 mm to the bregma / number of ED1-positive cells, +1.7 mm to the bregma / number of ED1-positive cells, −0.3 mm to the bregma: 1000 mg/kg i.p. twice
Experimental: as §1, §2
After observing these frozen sections by light microscopy, the total numbers of neutrophils on the ischemic and non-ischemic sides were obtained rseparately. Also, frozen sections obtained from identical rats were subjected to immunochemistry with an antibody for ED1 which is a cell surface marker of macrophages. ED1 is considered to exist in cells besides macrophages, and in fact, ED1-positive cells were also observed on the non-ischemic side in the experiment. However, as in Table 2, neutrophils were not observed on non-ischemia side, where inflammation was not observed. Therefore, with regard to ED1-positive cells, the difference in the number of cells between the ischemic and non-ischemic sides was calculated. The difference was determined as the number of macrophages and compared between each corresponding group. In Tables 2 and 3, “*” denotes a case in which significant differences versus the control group were observed by p<0.05 by Fisher's PLSD (protected least significant difference) tests, and “**” denotes a case in which significant difference was observed by p<0.01.

[5] = patients who received the drug; cited from earlier work
[6] = administration after ischemia, 200 mg/kg i.p. immediately and 6 h after reperfusion
[7] = administration after ischemia, 500 mg/kg i.p. immediately and 6 h after reperfusion
[8] = administration after ischemia, 1000 mg/kg i.p. immediately and 6 h after reperfusion
[9] = administration before ischemia, 1000 mg/kg i.p. once 10 min before occlusion, 24 h after reperfusion
[10] = 12 hours after onset of reperfusion, ischemic side
[11] = 12 hours after onset of reperfusion, non-ischemic side
[12] = 24 hours after onset of reperfusion, ischemic side
[13] = 24 hours after onset of reperfusion, non-ischemic side
[14] = 12 hours after the onset of reperfusion
[15] = 12 hours after the onset of reperfusion, ischemic side
[16] = 12 hours after the onset of reperfusion, non-ischemic side
[17] = 24 hours after the onset of reperfusion
[18] = 24 hours after the onset of reperfusion, ischemic side
[19] = 24 hours after the onset of reperfusion, non-ischemic side

## N[C@@H](Cc1c[nH]cn1)C(=O)O [histidine]
[1]
  programmed death (delayed neuronal death) of neurons: depressed
[2]
  neuronal death 7 days after ischemia caused by apoptosis: depressed
[3]; 200 mg/kg immediately after reperfusion and 6 hours thereafter
  infarcted volume compared with that of the control group: 71%
[3]; 500 mg/kg immediately after reperfusion and 6 hours thereafter
  infarcted volume compared with that of the control group: 39%
[3]; 1000 mg/kg immediately after reperfusion and 6 hours thereafter
  infarcted volume compared with that of the control group: 7%
[3]; [6]
  size of cerebral infarction, Cerebral cortex: 78.8 ± 52.3 mm^3
  size of cerebral infarction, Striatum: 34.3 ± 23.0 mm^3
  size of cerebral infarction, Total: 113.2 ± 74.0 mm^3
[3]; [7]
  size of cerebral infarction, Cerebral cortex: 39.9 ± 44.5 mm^3
  size of cerebral infarction, Striatum: 19.1 ± 24.4** mm^3
  size of cerebral infarction, Total: 59.0 ± 63.4* mm^3
[3]; [8]
  size of cerebral infarction, Cerebral cortex: 7.5 ± 13.3** mm^3
  size of cerebral infarction, Striatum: 3.3 ± 12.8** mm^3
  size of cerebral infarction, Total: 10.7 ± 14.5** mm^3
[3]; [9]
  size of cerebral infarction, Cerebral cortex: 81.4 ± 26.0 mm^3
  size of cerebral infarction, Striatum: 34.4 ± 16.0 mm^3
  size of cerebral infarction, Total: 115.8 ± 39.2 mm^3
[3]; pre-ischemic histidine 1000 mg/kg administration group
  size of infarction compared with that of the control group: no significant difference
neutrophils; 12 hours after ischemia, histidine-administration group versus control
  neutrophil infiltration: significantly suppressed
neutrophils; [10]
  number of neutrophils, +0.7 mm to the bregma: 128 ± 82
  number of neutrophils, +1.7 mm to the bregma: 101 ± 80
  number of neutrophils, −0.3 mm to the bregma: 106 ± 54
neutrophils; [11]
  number of neutrophils, +0.7 mm to the bregma: 0 ± 0
  number of neutrophils, +1.7 mm to the bregma: 1 ± 2
  number of neutrophils, −0.3 mm to the bregma: 0 ± 0
neutrophils; [12]
  number of neutrophils, +0.7 mm to the bregma: 250 ± 169
  number of neutrophils, −0.3 mm to the bregma: 287 ± 162
neutrophils; [13]
  number of neutrophils, +0.7 mm to the bregma: 0 ± 0
  number of neutrophils, +1.7 mm to the bregma: 1 ± 2
  number of neutrophils, −0.3 mm to the bregma: 0 ± 0
[4]; 12 hours after ischemia for 2 hours, cross section at +0.7 mm rostral to the bregma
  number of ED1-positive cells: significantly decreased
[4]; [14]
  number of ED1-positive cells, Differences (number of macrophages), +0.7 mm to the bregma: 123 ± 100*
  number of ED1-positive cells, Differences (number of macrophages), +1.7 mm to the bregma: 135 ± 101
  number of ED1-positive cells, Differences (number of macrophages), −0.3 mm to the bregma: 92 ± 107
[4]; [15]
  number of ED1-positive cells, +0.7 mm to the bregma: 450 ± 190
  number of ED1-positive cells, +1.7 mm to the bregma: 366 ± 149
  number of ED1-positive cells, −0.3 mm to the bregma: 363 ± 186
[4]; [16]
  number of ED1-positive cells, +0.7 mm to the bregma: 328 ± 113
  number of ED1-positive cells, +1.7 mm to the bregma: 238 ± 95
  number of ED1-positive cells, −0.3 mm to the bregma: 309 ± 72
[4]; 24 hours after ischemia, all cross sections
  number of ED1-positive cells: significant decreases
[4]; [17]
  number of ED1-positive cells, Differences (number of macrophages), +0.7 mm to the bregma: 141 ± 104*
  number of ED1-positive cells, Differences (number of macrophages), +1.7 mm to the bregma: 125 ± 72*
  number of ED1-positive cells, Differences (number of macrophages), −0.3 mm to the bregma: 190 ± 93*
[4]; [18]
  number of ED1-positive cells, +0.7 mm to the bregma: 264 ± 101
  number of ED1-positive cells, +1.7 mm to the bregma: 230 ± 57
  number of ED1-positive cells, −0.3 mm to the bregma: 340 ± 107
[4]; [19]
  number of ED1-positive cells, +0.7 mm to the bregma: 124 ± 34
  number of ED1-positive cells, +1.7 mm to the bregma: 104 ± 28
  number of ED1-positive cells, −0.3 mm to the bregma: 150 ± 46

## CC1=NN(c2ccccc2)C(=O)C1 [edaravone]
[5]
  patients who showed abnormal values in laboratory tests on the liver function: 21.4%
